Experiments:
[1] = system: DLD-1 colorectal adenocarcinoma cell lines; test: Neutral red (NR) uptake cytotoxicity assay, DLD-1; assay type: cell-based, human; conditions: for IC50: Homo sapiens, DLD-1, neutral red assay, 72 h incubation, read-out: IC50 DLD-1
From the text: (§1) Six human cancer cell lines and one normal cell line were used in this study. They included A549 human non-small cell lung cancer (NSCLC) cell line, obtained from the Institute for Fermentation, Osaka (IFO, Japan) and provided by Prof. Dr. Tansu Koparal (Anadolu University, Eskisehir, Turkey), SPC212 human mesothelioma cell line obtained from American Type Culture Collection (ATCC) and provided by Dr. Asuman Demiroğlu Zergeroğlu (Gebze Technical University, Kocaeli, Turkey), DLD-1 colorectal adenocarcinoma cell lines obtained from ATCC (CCL-221), Caco2 colorectal adenocarcinoma cells (ATCC, HTB-37) obtained from the ŞAP Institute of Turkey (Ankara), HepG2 hepatocarcinoma cells (ATCC, HB-8065) and MCF-7 breast adenocarcinoma cells (ATCC, HTB-22) were provided by Prof. Dr. Tansu Koparal (Anadolu University, Eskisehir, Turkey). The normal CRL2120 human skin fibroblasts were obtained from ATCC [CCD1094Sk (ATCC, CRL-2120)]. The cells were maintained as a monolayer in DMEM medium (Sigma-aldrich, Munich, Germany) medium supplemented with 10% fetal calf serum and 1% penicillin (100 U/mL)-streptomycin (100 μg/mL) in a humidified 5% CO2 atmosphere at 37 °C.
(§2) The cytotoxicity of samples was performed by NR uptake assay as previously described. This method is based on the ability of viable cells to incorporate and bind the supravital dye NR in the lysosomes. The procedure is cheaper and more sensitive than other cytotoxicity tests. […] Briefly, cells were detached by treatment with 0.25% trypsin/EDTA (Invitrogen) and an aliquot of 1 × 10^4 cells was placed in each well of a 96-well cell culture plate […]. The cells were allowed to attach overnight and subsequently treated with different concentrations of the 14 compounds. Each of the studied samples was immediately added in varying concentrations in additional 100 μL of culture medium to obtain a total volume of […]/well. After 72 h incubation in humidified 5% CO2 atmosphere at 37 °C, the medium was removed and 200 μL fresh medium containing 50 μg/mL NR was added to each well and incubation continued for an additional 3 h at 37 °C in 5% CO2 atmosphere. The dye medium was then removed and each well was then washed rapidly with 200 μL phosphate buffer saline (PBS) followed by addition of 200 μL of acetic acid-water-ethanol in water (1:49:50). The plates were kept for 15 min at room temperature to extract the dye and then shaken for a few minutes on a GFL 3012 shaker (Gesellschaft für Labortechnik mbH, Burgwedel, Germany). Absorbance was measured on ELx 808 Ultra Microplate Reader (Biotek) equipped with a 540 nm filter. Each assay was done at least three times, with three replicates each. The viability was evaluated based on a comparison with untreated cells. The IC50 values represent the sample’s concentrations required to inhibit 50% of cell proliferation and were calculated from a calibration curve by linear regression using Microsoft Excel.

[2] = system: normal CRL2120 human skin fibroblasts; test: Neutral red (NR) uptake cytotoxicity assay, normal CRL2120 fibroblasts; assay type: cell-based; conditions: Skin fibroblast, 72 h incubation
From the text: as §1, §2

[3] = system: MCF-7 cells; test: Flow cytometry cell cycle analysis and detection of apoptotic cells; assay type: cell-based, human; conditions: for Sub-G0/G1 (apoptotic) cells, % of cells: non-treated cells 3.1%; for cell cycle arrest: ¼ × IC50 to IC50, 72 h
Procedure: The cell-cycle analysis was performed by flow cytometry using BD cycletest^TM Plus DNA Kit Assay (BD Biosciences, San Jose, USA). The BD Cycletest™ Plus DNA kit provides a set of reagents for isolating and staining cell nuclei. Flow cytometric analysis of differentially stained cells is used to estimate the DNA index (DI) and cell-cycle phase distributions. Briefly, MCF-7 cells (3 mL, 1 × 10^5 cells/mL) were seeded into each well of 6-well plates and allowed to attach for 24 h. […] The untreated cells (control) were also included in the assay. They were further trypsinized and suspended in 1 mL PBS, then centrifuged at 400 g for 5 min at room temperature (RT). The cells were further processed according to the manufacturer protocol: addition of 250 μL of solution A (trypsin buffer), 10 min incubation at RT followed by the addition of 200 μL of solution B (trypsin inhibitor and RNAse buffer), 10 min incubation at RT followed by the addition of 200 μL of solution C (2–8 °C) (propidium iodide stain solution), 10 min on ice. The cells were further measured on a BD FACS Aria I Cell Sorter Flow Cytometer (Becton-Dickinson, Germany). For each sample, 10^4 cells were counted. For PI excitation, an argon-ion laser emitting at 488 nm was used. Cytographs were analyzed using BD FACSDiva™ Flow Cytometry Software Version 6.1.2 (Becton-Dickinson).

[4] = system: MCF-7 cells; test: Mitochondrial membrane potential (MMP) analysis, JC-1 staining, flow cytometry; assay type: cell-based, human; conditions: IC50 (C3), 72 h, control 4.3%
Procedure: The MMP was analyzed in MCF-7 cells by 5,5′,6,6′-tetrachloro-1,1′,3,3′-tetraethylbenzimidazolylcarbocyanine iodide) (JC-1; Biomol, Hamburg, Germany) staining as previously reported. […] Subsequently, cells were measured in a BD FACS Aria I Cell Sorter Flow Cytometer (Becton-Dickinson, Germany). The JC-1 signal was measured at an excitation of 561 nm (150 mW) and detected using a 586/15 nm band-pass filter. The signal was analyzed at 640 nm excitation (40 mW) and detected using a 730/45 nm bandpass filter. Cytographs were analyzed using BD FACSDiva™ Flow Cytometry Software Version 6.1.2 (Becton-Dickinson). All experiments were performed at least in triplicate.

[5] = system: MCF-7 cells; test: Measurement of reactive oxygen species (ROS), DCFH-DA; assay type: cell-based, human; conditions: at IC50, 24 h
Procedure: This is a cell-based assay for measuring hydroxyl, peroxyl, or other reactive oxygen species activity within a cell. The assay employs the cell-permeable fluorogenic probe 2′,7′-dichlorodihydrofluorescin diacetate (DCFH-DA). DCFH-DA is diffused into cells and is deacetylated by cellular esterases to non-fluorescent 2′,7′-dichlorodihydrofluorescin (DCFH), which is rapidly oxidized to highly fluorescent 2′,7′-dichlorofluorescein (DCF) by ROS. […] After addition of 100 μL 1× DCFH-DA/DMEM solution to cells and incubation at 37 °C for 30–60 min, the fluorescence was measured using SpectraMax® M5 Microplate Reader (Molecular Devices, Biberach, Germany) at 480/530 nm. All experiments were performed at least in triplicate.

[6] = system: six tested cancer cell lines (A549, SPC212, DLD-1, Caco-2, MCF-7, HepG2); test: Neutral red uptake assay, statements over the six tested cancer cell lines; assay type: cell-based, human
From the text: as §1, §2

CC1=CC(=O)c2c(O)cccc2C1=O [Compound 4, 5-hydroxy-2-methyl-1,4-naphthalenedione]
IC50 [1]: 0.98 ± 0.11 µM | IC50 [2]: 67.7 ± 6.49 µM | Sub-G0/G1 (apoptotic) cells, % of cells ([3]; 1/4xIC50, 72 h): 10.4% | Sub-G0/G1 (apoptotic) cells, % of cells ([3]; IC50, 72 h): 20.4% | cell cycle arrest [3]: cell cycle arrest between G0/G1 and S phases | MMP, gate P2 (loss / depletion of MMP) [4]: 12.2% | increase in ROS levels as compared with non-treated cells [5]: more than 3 fold | selectivity indexes (CRL2120 vs carcinoma cells), lower bound over the cancer cell lines ([6]; IC50 CRL2120 / IC50 cancer cell line): > 59

CCCCCCCCCCCCCC1=C(O)C(=O)C=C(O)C1=O [Compound 9, 2,5-dihydroxy-3-tridecyl-2,5-cyclohexadiene-1,4-dione]
IC50 [1]: 46.6 ± 5.38 µM | selectivity index DLD-1 ([1]; IC50 in CRL2120 normal fibroblasts divided by IC50 in DLD-1): 2.04 | IC50 [2]: 95.2 ± 6.65 µM | Sub-G0/G1 (apoptotic) cells, % of cells ([3]; 1/4xIC50, 72 h): 34.8% | Sub-G0/G1 (apoptotic) cells, % of cells ([3]; IC50, 72 h): 43.2% | cell cycle arrest [3]: cell cycle arrest between G0/G1 and S phases | MMP, gate P2 (loss / depletion of MMP) [4]: 88.1% | increase in ROS levels as compared with non-treated cells [5]: less than 2 fold | IC50 ([6]; Homo sapiens, bound valid for all six cancer cell lines, neutral red assay): < 100 µM

Reference: paper PMC5175396, “Cytotoxicity of Plumbagin, Rapanone and 12 other naturally occurring Quinones from Kenyan Flora towards human carcinoma cells” (BMC Pharmacology & Toxicology, 2016)
